In patent US10472347B2, “Aminopyrazine compounds with A2A antagonist properties” (Merck Sharp & Dohme Corp., priority 2014, dated 2019):

target: T1, human A2a receptor (Homo sapiens, UniProt P29274); test: A2a competition binding assay, Scintillation Proximity technology; conditions: membranes from HEK293 cells expressing human A2a receptor; 0.5 nM tritiated ligand
T1 construct: purchased Perkin-Elmer RBHA2AM400UA; host or cells: HEK293 cells (membranes)
Method: Binding affinities of compounds of the invention for the human A2a receptor were determined in a competition binding assay using Scintillation Proximity technology. Thus, […] from HEK293 cells expressing the human A2a receptor were incubated with a compound of the invention at concentrations ranging from 3000 nM to 0.15 nM in a reaction mixture containing also 0.5 nM of a tritiated form of 5-amino-7-[2-phenethyl]-2-(furan-2-yl)-7H-pyrazolo[4,3-e][1,2,4]triazolo[1,5-c]pyrimidine (the tritiated compound) and 100 μg of wheat germ agglutin-coated yttrium silicate SPA beads for one hour at room temperature with agitation. The beads were then allowed to settle to the bottom of the wells for 1 hr, after which the membrane-associated radioactivity was determined by scintillation counting in a TopCount microplate reader. Ki values were determined using the Cheng-Prusoff equation.
HEK293 cells expressing the human, rat, dog or monkey adenosine 2a receptor (Purchased from Perkin-Elmer # RBHA2AM400UA).
The Tritiated compound was prepared in-house by MRL Radiochemistry according to published methods.
Wheat germ agglutinin-coated yttrium silicate SPA beads (GE Healthcare #RPNQ0023). Dilute to 25 mg/ml in assay buffer.
Assay Buffer was prepared in house: Dulbecco's calcium and magnesium free phosphate buffered saline+10 mM MgCl2
Adenosine deaminase from calf intestine, 10 mg/2 ml (Roche #10 102 105 001).
A2a antagonist standard (9-chloro-1-(2-furanyl)-[1,2,4]triazolo1,5-c]quinazolin-5-amine from Tocris Bioscience)
Make eight 1:3 serial dilutions in 100% DMSO from a 3 mM compound stock
Transfer 50 nl of compound into a 384-well OptiPlate (Perkin Elmer).
Typically, final concentrations of compound used in the assay ranged from 3000 nM to 0.152 nM.
Dilute a solution of the Tritiated compound to 1.25 nM in assay buffer. This is a 2.5× solution. The final concentration in the assay is 0.5 nM. Calculate the concentration by counting two 5 μl aliquots.
Use 0.25 ug of membrane/well. Dilute membranes to 9.7 μg/ml in assay buffer. Treat with 20 ug/ml adenosine deaminase (ADA) for 15 minutes at room temperature to degrade endogenous adenosine.
Use 100 μg/well wheat germ agglutinin-coated yttrium silicate SPA beads.
Mix ADA-treated membranes and SPA beads together for 30 min prior to assay.
To the Perkin-Elmer Optiplate-384 containing the compound titration add 20 μl of 2.5× solution of the Tritiated compound and 30 μl of the membrane-bead mixture. Incubate for one hour at room temperature with agitation.
Include total binding (assay buffer+1% DMSO) and non-specific binding (CGS15943, 1 μM) wells.
Allow the beads to settle for one hour.
A curve fitting program (i.e., Prism, Activity Base, Chemcart) is used to determine the EC50. The Ki value is calculated using the Cheng-Prusoff equation. Ki=EC50/(1+(radioligand concentration/Kd))

T1 sequence (P29274 whole entry): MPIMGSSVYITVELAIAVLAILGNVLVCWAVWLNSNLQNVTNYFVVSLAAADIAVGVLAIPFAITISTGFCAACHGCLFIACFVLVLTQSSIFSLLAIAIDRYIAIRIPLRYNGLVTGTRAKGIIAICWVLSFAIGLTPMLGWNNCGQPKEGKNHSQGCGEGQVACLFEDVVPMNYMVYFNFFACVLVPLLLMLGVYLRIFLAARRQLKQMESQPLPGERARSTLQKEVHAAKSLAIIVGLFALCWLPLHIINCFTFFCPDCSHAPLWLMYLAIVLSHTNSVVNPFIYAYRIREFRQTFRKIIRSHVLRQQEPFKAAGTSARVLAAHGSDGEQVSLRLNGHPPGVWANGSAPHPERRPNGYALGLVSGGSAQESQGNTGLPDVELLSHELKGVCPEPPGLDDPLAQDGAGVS

SMILES	EC50 [nM]
Cc1nc(C(=O)NCc2ncccc2C2CC2)c(N)nc1-c1ncco1 [Ex-6, 3-amino-N-[(3-cyclopropylpyridin-2-yl)methyl]-6-methyl-5-(1,3-oxazol-2-yl)pyrazine-2-carboxamide]	5.9
Cc1nc(C(=O)NCc2cccc3cccnc23)c(N)nc1-c1ncco1 [Ex-9, 3-amino-6-methyl-5-(1,3-oxazol-2-yl)-N-(quinolin-8-ylmethyl)pyrazine-2-carboxamide]	2.1
Cc1cccc(CNC(=O)c2nc(C)c(-c3ncco3)nc2N)n1 [Ex-10, 3-amino-6-methyl-N-[(6-methylpyridin-2-yl)methyl]-5-(1,3-oxazol-2-yl)pyrazine-2-carboxamide]	1.2

Second part, the molecule after the results:

EC50 [nM]	SMILES
3.4	Cc1cccnc1CNC(=O)c1nc(C)c(-c2ncco2)nc1N [Ex-3, 3-amino-6-methyl-N-((3-methylpyridin-2-yl)methyl)-5-(oxazol-2-yl)pyrazine-2-carboxamide]
4.6	Cc1nc(C(=O)NCc2ncccc2C2CC2)c(N)nc1-c1ncco1 [Ex-4, 3-amino-N-((3-cyclopropylpyridin-2-yl)methyl)-6-methyl-5-(oxazol-2-yl)pyrazine-2-carboxamide]
4.7	Cc1cccnc1CNC(=O)c1nc(C)c(-c2ncco2)nc1N [Ex-5, 3-amino-6-methyl-N-[(3-methylpyridin-2-yl)methyl]-5-(1,3-oxazol-2-yl)pyrazine-2-carboxamide]

same assay, conditions: membranes from HEK293 cells expressing human A2a receptor; Ki by Cheng-Prusoff equation

SMILES	Ki [nM]
Cc1nc(C(=O)NCc2ncccc2C2CC2)c(N)nc1-c1ncco1 [Ex-6, 3-amino-N-[(3-cyclopropylpyridin-2-yl)methyl]-6-methyl-5-(1,3-oxazol-2-yl)pyrazine-2-carboxamide]	0.224
Cc1nc(C(=O)NCc2cccc3cccnc23)c(N)nc1-c1ncco1 [Ex-9, 3-amino-6-methyl-5-(1,3-oxazol-2-yl)-N-(quinolin-8-ylmethyl)pyrazine-2-carboxamide]	0.64
Cc1cccc(CNC(=O)c2nc(C)c(-c3ncco3)nc2N)n1 [Ex-10, 3-amino-6-methyl-N-[(6-methylpyridin-2-yl)methyl]-5-(1,3-oxazol-2-yl)pyrazine-2-carboxamide]	0.573
Cc1nc(C(=O)NCc2c(F)cccc2F)c(N)nc1-c1ncco1 [Ex-11, 3-amino-N-(2,6-difluorobenzyl)-6-methyl-5-(1,3-oxazol-2-yl)pyrazine-2-carboxamide]	0.125
Cc1nc(C(=O)NCc2ccno2)c(N)nc1-c1ncco1 [Ex-12, 3-amino-N-(isoxazol-5-ylmethyl)-6-methyl-5-(1,3-oxazol-2-yl)pyrazine-2-carboxamide]	9.82
Cc1c[nH]c(CNC(=O)c2nc(C)c(-c3ncco3)nc2N)n1 [Ex-14, 3-amino-6-methyl-N-[(4-methyl-1H-imidazol-2-yl)methyl]-5-(1,3-oxazol-2-yl)pyrazine-2-carboxamide]	2.12
Cc1nc(C(=O)NCc2ncc[nH]2)c(N)nc1-c1ncco1 [Ex-16, 3-amino-N-(1H-imidazol-2-ylmethyl)-6-methyl-5-(1,3-oxazol-2-yl)pyrazine-2-carboxamide]	5.14
Cc1nc(C(=O)NCc2cncs2)c(N)nc1-c1ncco1 [Ex-17, 3-amino-6-methyl-5-(1,3-oxazol-2-yl)-N-(1,3-thiazol-5-ylmethyl)pyrazine-2-carboxamide]	17.3
Cc1nc(C(=O)NCc2ncccc2C(F)(F)F)c(N)nc1-c1ncco1 [Ex-18, 3-amino-6-methyl-5-(1,3-oxazol-2-yl)-N-{[3-(trifluoromethyl)pyridin-2-yl]methyl}pyrazin-2-carboxamide]	0.151
Cc1nc(C(=O)NCc2ncccn2)c(N)nc1-c1ncco1 [Ex-19, 3-amino-6-methyl-5-(1,3-oxazol-2-yl)-N-(pyrimidin-2-ylmethyl)pyrazine-2-carboxamide]	2.76
Cc1nc(C(=O)N2CCCc3ccccc32)c(N)nc1-c1ncco1 [Ex-24]	78.5
Cc1nc(C(=O)NCc2ccn(C)n2)c(N)nc1-c1ncco1 [Ex-26, 3-amino-6-methyl-N-[(1-methyl-1H-pyrazol-3-yl)methyl]-5-(1,3-oxazol-2-yl)pyrazine-2-carboxamide]	1.71
Cc1nc(C(=O)NCc2cc3ccccc3cn2)c(N)nc1-c1ncco1 [Ex-29, 3-amino-N-(isoquinolin-3-ylmethyl)-6-methyl-5-(1,3-oxazol-2-yl)pyrazine-2-carboxamide]	0.336
Cc1nc(C(=O)N2CCCC(F)(F)C2)c(N)nc1-c1ncco1 [Ex-34, 3-[(3,3-difluoropiperidin-1-yl)carbonyl]-5-methyl-6-(1,3-oxazol-2-yl)pyrazin-2-amine]	847
Cc1nc(C(=O)NCc2cccc3c2ncn3CC(F)F)c(N)nc1-c1ncco1 [Ex-36, 3-amino-N-{[1-(2,2-difluoroethyl)-1H-benzimidazol-4-yl]methyl}-6-methyl-5-(1,3-oxazol-2-yl)pyrazine-2-carboxamide]	0.464

Second part, the molecule after the results:

Ki [nM]	SMILES
0.199	Cc1cccnc1CNC(=O)c1nc(C)c(-c2ncco2)nc1N [Ex-5, 3-amino-6-methyl-N-[(3-methylpyridin-2-yl)methyl]-5-(1,3-oxazol-2-yl)pyrazine-2-carboxamide]
5.18	Cc1nc(C(=O)N[C@@H]2CCc3cccnc32)c(N)nc1-c1ncco1 [Ex-7A, (R)-3-amino-N-(6,7-dihydro-5H-cyclopenta[b]pyridin-7-yl)-6-methyl-5-(1,3-oxazol-2-yl)pyrazine-2-carboxamide]
0.387	Cc1nc(C(=O)N[C@H]2CCc3cccnc32)c(N)nc1-c1ncco1 [Ex-7B, (S)-3-amino-N-(6,7-dihydro-5H-cyclopenta[b]pyridin-7-yl)-6-methyl-5-(1,3-oxazol-2-yl)pyrazine-2-carboxamide]
6.06	Cc1nc(C(=O)NCc2ncco2)c(N)nc1-c1ncco1 [Ex-13, 3-amino-6-methyl-5-(1,3-oxazol-2-yl)-N-(1,3-oxazol-2-ylmethyl)pyrazine-2-carboxamide]
1.25	Cc1nc(C(=O)NCc2nccn2C)c(N)nc1-c1ncco1 [Ex-15, 3-amino-6-methyl-N-[(1-methyl-1H-imidazol-2-yl)methyl]-5-(1,3-oxazol-2-yl)pyrazine-2-carboxamide]
0.365	Cc1nc(C(=O)NCc2ncccc2F)c(N)nc1-c1ncco1 [Ex-20, 3-amino-N-[(3-fluoropyridin-2-yl)methyl]-6-methyl-5-(1,3-oxazol-2-yl)pyrazine-2-carboxamide]
0.934	Cc1nc(C(=O)NCc2cccc(N(C)C)n2)c(N)nc1-c1ncco1 [Ex-21, 3-amino-N-{[6-(dimethylamino)pyridin-2-yl]methyl}-6-methyl-5-(1,3-oxazol-2-yl)pyrazine-2-carboxamide]
0.919	COc1cccc(CNC(=O)c2nc(C)c(-c3ncco3)nc2N)n1 [Ex-22, 3-amino-N-[(6-methoxypyridin-2-yl)methyl]-6-methyl-5-(1,3-oxazol-2-yl)pyrazine-2-carboxamide]
0.293	Cc1nc(C(=O)NCc2cccc3ccncc23)c(N)nc1-c1ncco1 [Ex-23, 3-amino-N-(isoquinolin-8-ylmethyl)-6-methyl-5-(1,3-oxazol-2-yl)pyrazine-2-carboxamide]
16.2	Cc1nc(C(=O)NCCc2ccccn2)c(N)nc1-c1ncco1 [Ex-25, 3-amino-6-methyl-5-(1,3-oxazol-2-yl)-N-(2-pyridin-2-ylethyl)pyrazine-2-carboxamide]
120	Cc1nc(C(=O)NCc2ccncc2)c(N)nc1-c1ncco1 [Ex-27, 3-amino-6-methyl-5-(1,3-oxazol-2-yl)-N-(pyridin-4-ylmethyl)pyrazine-2-carboxamide]
14.5	Cc1nc(C(=O)NCc2cccnc2)c(N)nc1-c1ncco1 [Ex-28, 3-amino-6-methyl-5-(1,3-oxazol-2-yl)-N-(pyridin-3-ylmethyl)pyrazine-2-carboxamide]
0.314	Cc1nc(C(=O)NCc2ccccc2F)c(N)nc1-c1ncco1 [Ex-30, 3-amino-N-(2-fluorobenzyl)-6-methyl-5-(1,3-oxazol-2-yl)pyrazine-2-carboxamide]
0.737	Cc1nc(C(=O)NCc2cccc(F)c2)c(N)nc1-c1ncco1 [Ex-31, 3-amino-N-(3-fluorobenzyl)-6-methyl-5-(1,3-oxazol-2-yl)pyrazine-2-carboxamide]
1.5	Cc1nc(C(=O)NCc2ccc(F)cc2)c(N)nc1-c1ncco1 [Ex-32, 3-amino-N-(4-fluorobenzyl)-6-methyl-5-(1,3-oxazol-2-yl)pyrazine-2-carboxamide]
2.8	Cc1nc(C(=O)NCc2ccc3ccccc3n2)c(N)nc1-c1ncco1 [Ex-33, 3-amino-6-methyl-5-(1,3-oxazol-2-yl)-N-(quinolin-2-ylmethyl)pyrazine-2-carboxamide]
0.396	Cc1cc(C)nc(CNC(=O)c2nc(C)c(-c3ncco3)nc2N)c1 [Ex-35, 3-amino-N-[(4,6-dimethylpyridin-2-yl)methyl]-6-methyl-5-(1,3-oxazol-2-yl)pyrazine-2-carboxamide]
7.77	Cc1nc(C(=O)NCc2nc(C)c(C)n2C)c(N)nc1-c1ncco1 [Ex-37, 3-amino-6-methyl-5-(1,3-oxazol-2-yl)-N-[(1,4,5-trimethyl-1H-imidazol-2-yl)methyl]pyrazine-2-carboxamide]
